Consider two compounds from patent US20090162425A1, “METHODS AND COMPOSITIONS FOR INHIBITING UNDESIRABLE CELLULAR PROLIFERATION BY TARGETED LIPOSOME DELIVERY OF ACTIVE AGENTS” (University of Tennessee Research Foundation, priority 2007, published 2009).

The target in data set [1] is avidin (Gallus gallus, UniProt P02701). The note with it: avidin-biotin interaction; cited from earlier work.
For data set [2], the system named is C6 GFP intracranial glioma tumors. The note with it: 2 mg/Kg paclitaxel administered systemically, intracranial model.
Description: The animals were monitored visually on a daily basis and weights were measured on every 3rd day until they lost 10% of their body weight.
After 5 days of tumor cell inoculation, animals were assigned randomly to 3 groups (n=3-4 per group). […] The animals were then sacrificed on the 9th day of treatment and the brains were isolated.
Tumor areas were measured METAMORPH® software after taking optical images with a CCD camera with GFP filter.
The conditions of data set [3]: in vivo; cited from earlier work.
Data set [4] deals with C6 GFP flank glioma tumors. The note with it: 2 mg/Kg paclitaxel administered systemically, flank model.
Description: Tumor growth was measured on every 3rd day with a vernier caliper, and tumor volume was measured using the formula
Injections were made using the retro orbital route of administration. For monitoring changes in tumor volume, tumor growth was measured every 3rd day with a vernier caliper, and tumor volume was measured as described in previous section.
The tumor growth delay was defined as the time required for a treated tumor to reach a specific volume (130 mm^3) minus the time for the untreated tumor to reach that same volume.
The conditions of data set [5]: cited from earlier work.

Sequence of avidin (P02701 25-152): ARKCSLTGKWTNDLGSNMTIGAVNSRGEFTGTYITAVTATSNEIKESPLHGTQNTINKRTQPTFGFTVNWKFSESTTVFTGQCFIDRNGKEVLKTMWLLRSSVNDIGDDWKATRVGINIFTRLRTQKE

`O=C(O)CCCC[C@@H]1SC[C@@H]2NC(=O)N[C@@H]21` [biotin]: the dissociation half-life entry in data set [1] is “about 89 days”.

For orientation: log P means the decadic logarithm of the partition coefficient of the neutral form, usually between octanol and water. With `CC(=O)O[C@H]1C(=O)[C@@]2(C)[C@H]([C@H](OC(=O)c3ccccc3)[C@]3(O)C[C@H](OC(=O)[C@H](O)[C@@H](NC(=O)c4ccccc4)c4ccccc4)C(C)=C1C3(C)C)[C@]1(OC(C)=O)CO[C@@H]1C[C@@H]2O` [paclitaxel], the “gross deleterious effects (clinical monitoring and daily weights)” value in data set [2] is on record as “no gross deleterious effects”. Further, in data set [3], the “drug bound to plasma proteins” value was “More than 90%”, the “terminal half-life (mean)” value is 5 h and the “terminal half-life (range)” value was 1.3 to 8.6 h. Besides, the “gross deleterious effects (clinical monitoring and daily weights)” value in data set [4] is “no gross deleterious effects”. The “log P” value in data set [5] is reported as 3.96.
